Counter-ions that a name gives are not always drawn. Like-named read-outs stand apart in the source and are kept apart here.
How the values were obtained:
[1] = target: T1, catalytic domain of human Bub1 (amino acids 704-1085) (Homo sapiens, UniProt O43683); experiment: Bub1 kinase assay (TR-FRET); type: biochemical
T1 construct: catalytic domain of human Bub1 (amino acids 704-1085); His6 (N); made in house; host or cells: Hi5 insect cells
Outline: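 Compounds from 2 mM DMSO stocks, serially diluted 1:3.4, incubated with enzyme at 22° C for 60 min. Stopped with EDTA, then 1 h with streptavidin-XL665, anti-phosphoserine antibody and Eu-labelled anti-mouse IgG. Phosphorylated biotin-peptide read by TR-FRET; IC50 by 4-parameter logistic fit.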

HeLa = experiment: Proliferation assay (HeLa cell line);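 further: crystal violet staining of cell number, scaled between a plate stained before dosing (0%) and cells left untreated (100%), compounds tested at 0.001-10 µM, IC50 via 4-parameter fit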
Bub1 = Bub1 (Homo sapiens, UniProt O43683); experiment: Formation-Assay: phosphorylation status of histone 2A by inhibition of kinase activity of Bub1; type: cell-based; settings: 16 h
Chain of Bub1 (O43683 whole entry): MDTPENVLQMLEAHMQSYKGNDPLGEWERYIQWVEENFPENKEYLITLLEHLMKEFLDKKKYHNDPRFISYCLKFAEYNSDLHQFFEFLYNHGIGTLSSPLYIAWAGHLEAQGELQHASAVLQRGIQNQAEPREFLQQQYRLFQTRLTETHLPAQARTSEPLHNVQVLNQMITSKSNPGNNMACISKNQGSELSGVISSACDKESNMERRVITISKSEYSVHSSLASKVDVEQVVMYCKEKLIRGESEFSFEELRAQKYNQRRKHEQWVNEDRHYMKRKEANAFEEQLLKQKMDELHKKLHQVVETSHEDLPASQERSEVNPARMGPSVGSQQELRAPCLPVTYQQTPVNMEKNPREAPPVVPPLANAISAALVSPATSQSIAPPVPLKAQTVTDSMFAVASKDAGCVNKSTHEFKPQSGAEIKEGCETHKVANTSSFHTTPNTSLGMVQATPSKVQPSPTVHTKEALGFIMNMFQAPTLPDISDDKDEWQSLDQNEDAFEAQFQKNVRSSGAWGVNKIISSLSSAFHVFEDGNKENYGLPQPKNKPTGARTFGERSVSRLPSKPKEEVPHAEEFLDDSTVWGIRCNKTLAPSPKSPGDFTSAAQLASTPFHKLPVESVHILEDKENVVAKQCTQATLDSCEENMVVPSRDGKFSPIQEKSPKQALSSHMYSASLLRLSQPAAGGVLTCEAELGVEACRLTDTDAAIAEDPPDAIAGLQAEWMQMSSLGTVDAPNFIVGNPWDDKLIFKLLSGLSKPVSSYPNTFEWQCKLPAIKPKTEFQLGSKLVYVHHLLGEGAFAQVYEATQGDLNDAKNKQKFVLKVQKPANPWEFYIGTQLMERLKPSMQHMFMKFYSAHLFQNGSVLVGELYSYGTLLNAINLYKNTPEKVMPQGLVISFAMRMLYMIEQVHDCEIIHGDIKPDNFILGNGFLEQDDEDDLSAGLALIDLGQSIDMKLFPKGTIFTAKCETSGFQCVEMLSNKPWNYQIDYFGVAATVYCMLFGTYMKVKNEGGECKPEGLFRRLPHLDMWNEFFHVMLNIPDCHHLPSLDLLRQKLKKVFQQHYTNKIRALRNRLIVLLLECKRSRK
Method: Biological Assay 4.1: Formation-Assay
Cell-Based Mechanistic Assay: Changes of Phosphorylation Status of Histone 2A by Inhibition of Kinase Activity of Bub1
This assay determines the suppression of histone 2A phosphorylation by a Bub1 kinase inhibitor during co-treatment with Nocodazole. 25000 cells (cells were ordered from ATCC) were seeded in 96 well plate for 5 h at 37° C. Cells were treated with Nocodazole (1 μg/ml) and varying concentrations (between 3 nM and 10 μM) of test compounds for 16 h. Cells were fixed (20 min, Fixing solution R&D), washed three times with PBS and blocked with Odyssey blocking buffer before incubating with the primary antibody against phosphorylated H2A (5 μg/ml ABIN482721) overnight at 2-8° C. After washing, secondary IRDye-labeled antibody mix with cell stains was added for 1 h and washed again with PBS. Plates were scanned with LiCor Odyssey Infrared Imager CLx at 800 nm for P-H2A and at 700 nm for cell stains Draq5/Sapphire. The quotient of 800 nm and 700 nm for Nocodazole only treated cells was set as 100% and the quotient of 800 nm and 700 nm of untreated cells was set as 0%.
Histone H2A is an immediate intracellular substrate of Bub1 kinase. Determination of the phosphorylation status of Histone H2A provides a direct measure of the intracellular activity of Bub1 kinase.

[2] = tested on: HeLa human cervical tumor cells; experiment: Proliferation assay (HeLa+Paclitaxel); settings: read-out: Biological Assay 3: HeLa + Paclitaxel IC50, 3 nM paclitaxel, crystal violet;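 further: compounds at 0.001-10 µM added 4 h after paclitaxel, 92 h exposure, absorbance normalized to zero-point plate (0%) and untreated cells (100%), IC50 from 4-parameter fit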
Method: Proliferation Assay (HeLa+Paclitaxel):
Cultivated HeLa human cervical tumor cells (DSMZ ACC-57) were plated at a density of 3000 cells/well in a 96-well multititer plate in 200 μL of growth medium supplemented 10% fetal calf serum. After 24 hours, the cells of one plate (zero-point plate) were stained with crystal violet (see below). The medium of the other plates was supplemented with 3 nM of paclitaxel (Sigma-Aldrich) and the cells were incubated at 37° C. After 4 hours the test substances were added in various concentrations (0 μM, as well as in the range of 0.001-10 μM; the final concentration of the solvent dimethyl sulfoxide was adjusted to 0.1%) using a Hewlett-Packard HP D300 Digital Dispenser. The cells were incubated for another 92 hours at 37° C. in the presence of test substances. Cell proliferation was determined by staining the cells with crystal violet: the cells were fixed by adding 20 μL/measuring point of an 11% glutaric aldehyde solution for 15 minutes at room temperature. After three washing cycles of the fixed cells with water, the plates were dried at room temperature. The cells were stained by adding 100 μL/measuring point of a 0.1% crystal violet solution (pH 3.0). After three washing cycles of the stained cells with water, the plates were dried at room temperature. The dye was dissolved by adding 100 μL/measuring point of a 10% acetic acid solution. […] The change of cell number, in percent, was calculated by normalization of the measured values to the absorbtion values of the zero-point plate (=0%) and the absorbtion of the untreated (0 μm) cells (=100%). The IC50 values were determined by means of a 4 parameter fit.

[3] = 10 μM ATP, read-out: Biological Assay 1: Bub1 kinase assay median IC50
[4] = Biological Assay 1: Bub1 kinase assay median IC50, 10 μM ATP
[5] = Homo sapiens, 96 h, read-out: Biological Assay 2: Proliferation assay (HeLa cell line) median IC50
[6] = Biological Assay 4.1: H2A Formation IC50, co-treatment with Nocodazole 1 μg/ml

T1 sequence (O43683 704-1085): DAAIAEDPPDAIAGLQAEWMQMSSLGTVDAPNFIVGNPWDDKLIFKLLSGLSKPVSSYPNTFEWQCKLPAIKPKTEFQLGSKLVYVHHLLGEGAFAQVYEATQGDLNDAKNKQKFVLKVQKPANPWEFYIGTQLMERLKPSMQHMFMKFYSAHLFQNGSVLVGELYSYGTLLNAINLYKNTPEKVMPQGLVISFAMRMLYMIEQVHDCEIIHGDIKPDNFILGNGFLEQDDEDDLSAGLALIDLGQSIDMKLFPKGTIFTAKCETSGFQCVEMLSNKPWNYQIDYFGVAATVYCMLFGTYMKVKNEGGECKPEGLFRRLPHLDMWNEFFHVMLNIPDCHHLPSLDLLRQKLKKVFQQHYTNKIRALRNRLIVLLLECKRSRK

| Molecule | IC50 [1, 3] [µM] | IC50 [2] [µM] | IC50 [1, 4] [µM] | IC50 (HeLa; [5]) [µM] | IC50 (Bub1; [6]) [µM] | IC50 (HeLa; read-out: Biological Assay 2: Proliferation assay (HeLa cell line) median IC50, 4 days, crystal violet) [µM] | IC50 (Bub1; co-treatment with Nocodazole 1 μg/ml, read-out: Biological Assay 4.1: H2A Formation IC50) [µM] |
| --- | --- | --- | --- | --- | --- | --- | --- |
| 2-{3,5-difluoro-4-[(3-{5-[2-(methylsulfonyl)ethyl]-4-(eparate-4-ylamino)pyrimidin-2-yl}-1H-indazol-1-yl)methyl]phenoxy}ethanol [Example 2-4-1] | 0.012 | 3.6 | – | – | – | > 10 | 0.096 |
| CCOc1cc(F)c(Cn2nc(-c3ncc(CCCCN4CCOCC4)c(Nc4ccncc4)n3)c3ccccc32)c(F)c1 [Example 2-2-12, 2-[1-(4-ethoxy-2,6-difluorobenzyl)-1H-indazol-3-yl]-5-[4-(morpholin-4-yl)butyl]-N-(pyridin-4-yl)pyrimidin-4-amine] | – | 0.17 | 0.012 | 2.3 | 0.8 | – | – |
| CCOc1cc(F)c(Cn2nc(-c3ncc(CCCN4CCOCC4)c(Nc4ccncc4C(F)(F)F)n3)c3ccccc32)c(F)c1 [Example 2-2-14, 2-[1-(4-ethoxy-2,6-difluorobenzyl)-1H-indazol-3-yl]-5-[3-(morpholin-4-yl)propyl]-N-[3-(trifluoromethyl)pyridin-4-yl]pyrimidin-4-amine] | – | 0.14 | 0.13 | 7.8 | 3.9 | – | – |
| CCOc1cc(F)c(Cn2nc(-c3ncc(CCCCN4CCCC(F)(F)C4)c(Nc4ccncc4)n3)c3ccccc32)c(F)c1 [Example 2-2-17, 5-[4-(3,3-difluoropiperidin-1-yl)butyl]-2-[1-(4-ethoxy-2,6-difluorobenzyl)-1H-indazol-3-yl]-N-(pyridin-4-yl)pyrimidin-4-amine] | – | 0.34 | 0.095 | 9.3 | 1.2 | – | – |
| CCOc1cc(F)c(Cn2nc(-c3nc(CS(C)(=O)=O)cc(Nc4ccncc4)n3)c3ccccc32)c(F)c1 [Example 2-3-4, 2-[1-(4-ethoxy-2,6-difluorobenzyl)-1H-indazol-3-yl]-6-[(methylsulfonyl)methyl]-N-(pyridin-4-yl)pyrimidin-4-amine] | – | 1 | 0.0059 | 2.1 | 0.00052 | – | – |
| COc1cnccc1Nc1nc(-c2nn(Cc3c(F)cc(OCCO)cc3F)c3ccccc23)nc2c1CCC2 [Example 2-4-5, 2-{3,5-difluoro-4-[(3-{4-[(3-methoxypyridin-4-yl)amino]-6,7-dihydro-5H-cyclopenta[d]pyrimidin-2-yl}-1H-indazol-1-yl)methyl]phenoxy}ethanol] | 0.028 | 0.18 | – | 2.6 | 3.9 | – | – |
| OCCOc1cc(F)c(Cn2nc(-c3nc4c(c(Nc5ccnnc5)n3)CCC4)c3ccccc32)c(F)c1 [Example 2-4-10, 2-[3,5-difluoro-4-({3-[4-(pyridazin-4-ylamino)-6,7-dihydro-5H-cyclopenta[d]pyrimidin-2-yl]-1H-indazol-1-yl}methyl)phenoxy]ethanol, salt with hydrochloric acid] | – | 1.2 | 0.018 | > 10 | 0.01 | – | – |
| Cc1cc(Nc2nc(-c3nn(Cc4c(F)cc(OCCO)cc4F)c4ccccc34)nc3c2CCC3)ncn1 [Example 2-4-11, 2-{3,5-difluoro-4-[(3-{4-[(6-methylpyrimidin-4-yl)amino]-6,7-dihydro-5H-cyclopenta[d]pyrimidin-2-yl}-1H-indazol-1-yl)methyl]phenoxy}ethanol] | – | 0.12 | 0.088 | > 10 | 1.9 | – | – |
| Cc1cc(Nc2nc(-c3nn(Cc4c(F)cc(OCCO)cc4F)c4ccccc34)nc3c2CCC3)ccn1 [Example 2-4-12, 2-{3,5-difluoro-4-[(3-{4-[(2-methylpyridin-4-yl)amino]-6,7-dihydro-5H-cyclopenta[d]pyrimidin-2-yl}-1H-indazol-1-yl)methyl]phenoxy}ethanol] | 0.048 | 3.3 | – | 1.1 | 2.3 | – | – |
| CC(=O)Nc1cc(Nc2nc(-c3nn(Cc4c(F)cc(OCCO)cc4F)c4ccccc34)ncc2C2CCN(CC(F)(F)F)CC2)ccn1 [Example 2-6-13, N-{4-[(2-{1-[2,6-difluoro-4-(2-hydroxyethoxy)benzyl]-1H-indazol-3-yl}-5-[1-(2,2,2-trifluoroethyl)piperidin-4-yl]pyrimidin-4-yl)amino]pyridin-2-yl}acetamide] | – | 0.39 | 0.053 | 9.7 | 0.0084 | – | – |

Further lines, with some results ahead:

| IC50 [1, 3] [µM] | IC50 [2] [µM] | IC50 [1, 4] [µM] | IC50 (HeLa; [5]) [µM] | IC50 (Bub1; [6]) [µM] | Molecule | IC50 (HeLa; read-out: Biological Assay 2: Proliferation assay (HeLa cell line) median IC50, 4 days, crystal violet) [µM] | IC50 (Bub1; co-treatment with Nocodazole 1 μg/ml, read-out: Biological Assay 4.1: H2A Formation IC50) [µM] |
| --- | --- | --- | --- | --- | --- | --- | --- |
| – | 0.15 | 0.005 | 3.6 | 1.4 | CCOc1cc(F)c(Cn2nc(-c3ncc(CC[S@@+](C)[O-])c(Nc4ccncc4)n3)c3ccccc32)c(F)c1 [Example 2-1-1, 2-[1-(4-ethoxy-2,6-difluorobenzyl)-1H-indazol-3-yl]-5-{2-[(R)-methylsulfinyl]ethyl}-N-(pyridin-4-yl)pyrimidin-4-amine] | – | – |
| – | 0.23 | 0.015 | 6.9 | 1.9 | CCOc1cc(F)c(Cn2nc(-c3ncc(CCN4CCCC(F)(F)C4)c(Nc4ccncc4)n3)c3ccccc32)c(F)c1 [Example 2-2-16, 5-[2-(3,3-difluoropiperidin-1-yl)ethyl]-2-[1-(4-ethoxy-2,6-difluorobenzyl)-1H-indazol-3-yl]-N-(pyridin-4-yl)pyrimidin-4-amine] | – | – |
| – | 0.4 | 0.13 | > 10 | 8.7 | CCOc1cc(F)c(Cn2nc(-c3ncc(CCCN4CCC(F)(F)CC4)c(Nc4ccncc4)n3)c3ccccc32)c(F)c1 [Example 2-2-18, 5-[3-(4,4-difluoropiperidin-1-yl)propyl]-2-[1-(4-ethoxy-2,6-difluorobenzyl)-1H-indazol-3-yl]-N-(pyridin-4-yl)pyrimidin-4-amine] | – | – |
| – | 0.63 | 0.028 | 5.4 | 1.8 | CCOc1cc(F)c(Cn2nc(-c3ncc(CN4CC(F)(F)C4)c(Nc4ccncc4)n3)c3ccccc32)c(F)c1 [Example 2-2-19, 5-[(3,3-difluoroazetidin-1-yl)methyl]-2-[1-(4-ethoxy-2,6-difluorobenzyl)-1H-indazol-3-yl]-N-(pyridin-4-yl)pyrimidin-4-amine] | – | – |
| – | 3.9 | 0.015 | > 10 | 0.07 | CS(=O)(=O)CCCc1cnc(-c2nn(Cc3c(F)cc(OCCO)cc3F)c3ccccc23)nc1Nc1ccncc1 [Example 2-4-2, 2-{3,5-difluoro-4-[(3-{5-[3-(methylsulfonyl)propyl]-4-(pyridin-4-ylamino)pyrimidin-2-yl}-1H-indazol-1-yl)methyl]phenoxy}ethanol] | – | – |
| – | > 10 | 0.94 | > 10 | 1 | C[S@@+]([O-])CCCc1cnc(-c2nn(Cc3c(F)cc(OCCO)cc3F)c3ccccc23)nc1Nc1ccncc1 [Example 2-4-3, 2-[3,5-difluoro-4-({3-[5-{3-[(R)-methylsulfinyl]propyl}-4-(pyridin-4-ylamino)pyrimidin-2-yl]-1H-indazol-1-yl}methyl)phenoxy]ethanol] | – | – |
| 0.0091 | 0.17 | – | 1.4 | 0.052 | CCOc1cc(F)c(Cn2nc(-c3nc(CO)cc(Nc4ccncc4C)n3)c3ccccc32)c(F)c1 [Example 2-6-4, {2-[1-(4-ethoxy-2,6-difluorobenzyl)-1H-indazol-3-yl]-6-[(3-methylpyridin-4-yl)amino]pyrimidin-4-yl}methanol] | – | – |
| – | 2.1 | 0.044 | > 10 | 2.3 | Cc1nccc(Nc2nc(-c3nn(Cc4c(F)cc(O)cc4F)c4ccccc34)nc3c2CCC3)n1 [Example 2-6-12, 3,5-difluoro-4-[(3-{4-[(2-methylpyrimidin-4-yl)amino]-6,7-dihydro-5H-cyclopenta[d]pyrimidin-2-yl}-1H-indazol-1-yl)methyl]phenol] | – | – |
| – | 0.67 | – | > 10 | 0.038 | CCOc1cc(F)c(Cn2nc(-c3nc(C)c(F)c(Nc4ccnc(C(F)(F)F)c4)n3)c3ccccc32)c(F)c1 [Example 2-12-21, 2-[1-(4-ethoxy-2,6-difluorobenzyl)-1H-indazol-3-yl]-5-fluoro-6-methyl-N-[2-(trifluoromethyl)pyridin-4-yl]pyrimidin-4-amine] | – | – |

Source: patent US20170275270A1, “BENZYL SUBSTITUTED INDAZOLES” (Bayer Pharma Aktiengesellschaft, priority 2014, published 2017)
